# From paper PMC12811501, “A plant-derived antimicrobial peptide with multiple mechanisms of action exhibiting antibacterial and antibiofilm activities comparable to or superior to polymyxin B” (Current Research in Microbial Sciences, 2025)
# Read-outs that look alike come from different tables or passages of the source. Residues, ends and D or L forms follow the SMILES beside them.
# What was measured:
# Cryptococcus neoformans = conditions: ref Szerencsés et al., 2025; cited from earlier work
# Source text: (§1) NCR169 is another NCR peptide essential for differentiation of nitrogen fixing bacteroids in Medicago species ([Horváth et al., 2015]). This 38-amino-acid peptide contains four cysteines that are critical for its symbiotic function in planta.
# Candida species = conditions: ref Szerencsés et al., 2021; cited from earlier work
# Source text: as §1
# [1] = tested on: human keratinocyte HaCaT cells; conditions: cited from earlier work
# [2] = tested on: HindIII-digested lambda phage DNA; experiment: Real-time DNA binding by SYBR Gold fluorescence; conditions: 100 ng DNA, 10 µM peptide added at 0 or 14 min, room temperature
# Method: (§2) In addition, DNA-binding kinetics were monitored in real time using a Hidex Sense plate reader at room temperature in three independent experiments. Reaction mixtures contained 100 ng of HindIII-digested lambda phage DNA in 1 × SYBR Gold (Thermo Scientific), either without peptide or with 10 µM of NCR169C17–38 (2.74041 µg), NCR169 (4.56545 µg), NCR169_16–27 (1.56597 µg), or NCR169_17–27 (1.40279 µg). Peptides were added either at the start (0 min) or at 14 min. Fluorescence from DNA-bound SYBR Gold was measured every 3 min (excitation 490 nm, emission 535 nm). At 27 min, proteinase K (1 mg/ml; 100 µg final) was added to peptide-treated samples to assess the effect on peptide–DNA binding. Experiments were done in three biological replicates.
# (§3) The DNA-binding kinetics were quantified using SYBR Gold fluorescence (Fig. 3.D). […] To test if peptide removal would recover the DNA–SYBR Gold fluorescence to control values, Proteinase K was added at 27 min to all reactions. […] In contrast, fluorescence values in the NCR169 samples remained unchanged, while those of NCR169C17–38 or NCR169_17–27 increased slightly and gradually to the same limited extent.
# Proteinase K = Proteinase K (Parengyodontium album, UniProt P06873); experiment: Proteinase K treatment of peptide-DNA samples (recovery of SYBR Gold fluorescence); conditions: Proteinase K 1 mg/ml added at 27 min to peptide-DNA-SYBR Gold samples, 10 µM peptide
# Method: as §2, §3
# [3] = tested on: Acinetobacter baumannii pre-formed biofilm; experiment: microbe, parasite or virus in culture; type: cell-based; conditions: for MBC: 24 h
# Method: For the biofilm eradication assay the difference was at the beginning of the experiments when bacteria were pre-cultured for 24 h or 72 h in MHB with a starting OD600 = 0.01. Then bacterial suspensions were removed from the wells followed by washing three times with 200 µl of 1/2 MHB. Subsequently fresh 1/10 MHB was added to the wells containing the respective dilutions of NCR169C17–38, meropenem or polymixin B and the treatment lasted either 3 h or 24 h. Experiments were done in three biological replicates.
# To assess whether the NCR169C17–38 peptide or the tested antibiotics could eradicate pre-formed biofilms, A. baumannii was first cultured in MHB for 24 h, then treated with NCR169C17–38, meropenem or polymyxin B for either 3 h or 24 h, using the same concentration range as in the previous experiment. Both bacterial survival within the pre-formed biofilm and the amount of residual biofilm were assessed. […] In contrast, neither of the two antibiotics completely eliminated the bacteria within the tested concentration range. […] This 24 h of treatment was repeated on mature biofilm (pre-formed for 72 h) and the results were very similar (Supplementary Fig. 1.).
# [4] = tested on: Escherichia coli (ATCC 8739); type: cell-based; conditions: ATCC 8739
# Source text: The Gram-positive strains Enterococcus faecalis (ATCC 29212), Staphylococcus aureus (HNCMO112011), and Listeria monocytogenes (ATCC 19111), and the Gram-negative strains Pseudomonas aeruginosa (ATCC 27853), Escherichia coli (ATCC 8739), Salmonella enterica (ATCC 13076), Klebsiella pneumoniae (NCTC 13440), and Acinetobacter baumannii (ATCC 17978) were obtained from ATCC (United States) and NCTC (National Collection of Type Cultures – England).
# Minimal bactericidal concentrations (MBC) of peptides and reference antibiotics were determined in 20 mM potassium phosphate buffer (PPB, pH 7.4) and Mueller–Hinton broth (MHB) as described by ([Jenei et al., 2020]). Briefly, bacterial cultures were grown to mid-log phase, washed, adjusted to OD₆₀₀ = 0.1 (∼10⁷ CFU/mL), added 10 μl of it into 100 μl mixture and incubated in 96-well plates with 2-fold serial dilutions of peptides or antibiotics. After incubation at 37 °C with shaking, bacterial viability was assessed by plating 5 μL aliquots on LB agar. MBC was defined as the lowest concentration yielding no colony growth. […]
# Three biological replicates were treated at OD600 = 0.2 with a final concentration of 1.6 µM NCR169C17–38 peptide for 20 min, while the control samples were treated with the same amount of water for 20 min. […] Quality and quantity was detected using 2200 TapeStation (Agilent) and Qubit RNA BR Assay […]
# Sequence of Proteinase K (P06873 106-384): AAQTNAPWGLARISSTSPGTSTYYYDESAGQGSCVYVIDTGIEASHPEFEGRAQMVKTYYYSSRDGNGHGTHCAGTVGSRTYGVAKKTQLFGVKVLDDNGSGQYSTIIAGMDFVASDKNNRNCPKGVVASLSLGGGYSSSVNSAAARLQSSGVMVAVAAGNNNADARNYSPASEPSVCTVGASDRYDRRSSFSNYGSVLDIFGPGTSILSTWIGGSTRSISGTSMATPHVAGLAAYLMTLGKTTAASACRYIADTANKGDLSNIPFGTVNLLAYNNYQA
compound,measurement,setting,value
CC[C@H](C)[C@H](NC(=O)[C@H](CCCCN)NC(=O)[C@H](Cc1ccccc1)NC(=O)[C@H](CC(C)C)NC(=O)[C@@H]1CCCN1C(=O)[C@H](CCCCN)NC(=O)[C@H](CCCCN)NC(=O)[C@H](CO)NC(=O)[C@@H](N)CCCCN)C(=O)N[C@@H](Cc1c[nH]c2ccccc12)C(=O)N[C@@H](CCCCN)C(=O)N[C@@H](CS)C(=O)N[C@H](C(=O)N[C@@H](CCC(=O)O)C(=O)N[C@@H](CC(N)=O)C(=O)N[C@H](C(=O)N[C@@H](CS)C(=O)N[C@H](C(=O)N[C@@H](CC(C)C)C(=O)N[C@@H](Cc1c[nH]c2ccccc12)C(=O)N[C@@H](Cc1ccc(O)cc1)C(=O)N[C@@H](CCCCN)C(N)=O)C(C)C)C(C)C)C(C)C [NCR169C17–38] (H-KSKKPLFKIWKCVENVCVLWYK-NH2; N-terminus assumed),antifungal activity,Cryptococcus neoformans,potent antifungal activity
same,antifungal activity,Candida species,potent antifungal activity
same,cytotoxicity,[1],non-cytotoxic
same,extent of SYBR Gold fluorescence signal reduction (hierarchy),[2],NCR169C17–38 > NCR169 > NCR169_16–27 > NCR169_17–27
same,sensitivity to Proteinase K treatment,Proteinase K,only partial sensitivity
same,degradation of pre-formed biofilm,"[3]; A. baumannii biofilm pre-formed 24 h, 24 h of treatment, Crystal Violet OD550",successful even at sub-MBC level
same,MBC,"[3]; pre-formed biofilm, read-out: MBC, Eradication test after 3 h",6.3 µM
same,MBC,"[3]; pre-formed biofilm, read-out: MBC, Eradication test after 24 h",12.5 µM
same,concentration degrading the mature biofilm (sub-MBC level),"[3]; pre-formed biofilm, 72 h",3.1 µM
same,MBC,[4],6.2 µM
